From US8263656B2 (Hoffmann-La Roche Inc., priority 2008, dated 2012)

Key:
[1] = target: T1, human CRTH2 (Homo sapiens, UniProt Q9Y5Y4); assay: Human CRTH2 Receptor Binding Assay (whole cell, [3H]ramatroban competition); conditions: CHO-K1 cells expressing human CRTH2 and G-alpha16; 20 nM [3H]ramatroban; 1 hour, room temperature
T1 construct: expressed in transfected cells
T1 sequence (Q9Y5Y4 1-395): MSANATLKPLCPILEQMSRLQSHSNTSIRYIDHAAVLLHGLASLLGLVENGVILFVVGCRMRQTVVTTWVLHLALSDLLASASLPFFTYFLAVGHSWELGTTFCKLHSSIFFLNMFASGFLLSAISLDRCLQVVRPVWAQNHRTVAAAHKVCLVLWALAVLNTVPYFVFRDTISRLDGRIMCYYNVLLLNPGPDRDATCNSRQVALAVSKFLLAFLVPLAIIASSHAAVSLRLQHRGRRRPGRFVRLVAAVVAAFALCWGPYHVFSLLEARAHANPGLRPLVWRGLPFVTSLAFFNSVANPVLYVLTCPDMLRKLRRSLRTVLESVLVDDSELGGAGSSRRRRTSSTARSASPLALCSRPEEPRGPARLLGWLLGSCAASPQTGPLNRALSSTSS
Method in brief: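 CHO-K1 cells stably expressing human CRTH2 and G-alpha16 (1.5×10^5 cells) incubated 1 h at room temperature with 20 nM [3H]ramatroban in PBS, 10 mM MgCl2, 0.06% BSA, then filtered and counted. Non-specific binding defined with 10 μM 15(R)-15-methyl PGD2; IC50 from 7-concentration 4-parameter logistic fit of specific-binding inhibition.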

[2] = test system: DK-PGD2-induced IL-13 production in T helper type 2 (Th2) cells; assay: DK-PGD2-Induced IL-13 Production Assay in Th2 Cells; assay type: cell-based; conditions: human Th2 cells, 500 nM DK-PGD2, 4 hrs at 37° C., ELISA; unit inferred; read-out: IC50 of inhibiting IL-13 production (values greater than 10)
Description: Inhibition of 13,14-dihydro-15-keto Prostaglandin D2 (DK-PGD2)-induced IL-13 production in T helper type 2 (Th2) cells was applied to evaluate compound cellular potency.
Cultures of Th2 cells were established from blood of healthy human volunteers according to the following procedure. Peripheral blood mononuclear cells (PBMC) were first isolated from 50 mL of fresh blood by Ficoll-Hypaque density gradient centrifugation, followed by CD4^+ cell purification using a CD4^+ T Cell Isolation Kit II (from Miltenyi Biotec Inc.). The CD4^+ T cells were then differentiated to Th2 cells by culturing the cells in X-VIVO 15® medium (from Cambrex BioScience Walkersville Inc.) containing 10% human AB serum (serum of blood type AB from Invitrogen Corporation), 50 U/mL of recombinant human interleukin-2 (rhIL-2) (from PeproTech Inc.) and 100 ng/mL of recombinant human interleukin-4 (rhIL-4) (from PeproTech Inc.) for 7 days. The Th2 cells were isolated using a CD294 (CRTH2) MicroBead Kit (from Miltenyi Biotec Inc.) and amplified in X-VIVO 15® medium containing 10% human AB serum and 50 U/mL of rhIL-2 for 2 to 5 weeks. In general, 70% to 80% of the Th2 cells used in the assay are CRTH2-positive when analyzed by fluorescence-activated cell sorting using the BM16 antibody (as previously described) conjugated to phycoerythrin (PE).
The spontaneous production of IL-13 by Th2 cells was determined in the absence of DK-PGD2 stimulation and the value was subtracted from that in the presence of each compound for percent inhibition and IC50 calculations.
The percent inhibition of interleukin 13 (IL-13) production for a compound at various concentrations was calculated according to the following formula, [1-(IL-13 production in the presence of compound)/(IL-13 production in the presence of 0.15% DMSO)]×100. The IC50 value, defined as the concentration of a compound that is required for 50% inhibition of IL-13 production, was calculated by fitting the percent inhibition data for 7 concentrations to a sigmoidal dose-response (4 parameter logistic) model in the XLfit® software Excel add-in program [ID Business Solutions Ltd., model 205, where F(x)=(A+(B−A)/(1+((C/x)^D)))].

- IC50 [1]: 981 nM
- IC50 [2]: > 10000 nM
SMILES: CN(C1CCCc2c(OCC(=O)O)cc(F)cc21)S(=O)(=O)c1ccc(Cl)cc1Cl (centres unmarked) [Example 2-16]
